Assay results published in PubChem BioAssay AID248 (DTP/NCI, 2004).
Where “and” joins values, the source holds several entries; their conditions need not be identical. Equal values may be shown once. Toxic doses and inconclusive results are not listed. Rule as the data show it: active = T/C of 150% or more; inactive = T/C below 125%.

System: L1210 leukemia ip in BDF1 mice, survival T/C
Assay: NCI In Vivo Anticancer Drug Screen. Data for tumor model L1210 Leukemia (intraperitoneal) in B6D2F1 (BDF1) mice
Details: endpoint: mean survival time, higher = longer survival
Method in brief: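 Transplanted-tumor mice were given test agent; controls received vehicle only. Survival readings from the two groups were divided (treated over control).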

[1] = dose: 100.0 mg/kg/injection, schedule: Q01DX009 (ip), vehicle: Klucel (hydroxypropylcellulose) (HPC)
[2] = dose: 200.0 mg/kg/injection, schedule: Q01DX009 (ip), vehicle: Klucel (hydroxypropylcellulose) (HPC)
[3] = dose: 100.0 mg/kg/injection, schedule: Q04DX002 (ip), vehicle: Klucel (hydroxypropylcellulose) (HPC)
[4] = dose: 200.0 mg/kg/injection, schedule: Q04DX002 (ip), vehicle: Klucel (hydroxypropylcellulose) (HPC)
[5] = dose: 400.0 mg/kg/injection, schedule: Q04DX002 (ip), vehicle: Klucel (hydroxypropylcellulose) (HPC)
[6] = dose: 100.0 mg/kg/injection, schedule: Q01DX001 (ip), vehicle: saline
[7] = dose: 200.0 mg/kg/injection, schedule: Q01DX001 (ip), vehicle: saline
[8] = dose: 25.0 mg/kg/injection, schedule: Q01DX009 (ip), vehicle: saline
[9] = dose: 50.0 mg/kg/injection, schedule: Q01DX009 (ip), vehicle: saline
[10] = dose: 50.0 mg/kg/injection, schedule: Q04DX003 (ip), vehicle: saline
[11] = dose: 100.0 mg/kg/injection, schedule: Q01DX009 (ip), vehicle: saline
[12] = dose: 100.0 mg/kg/injection, schedule: Q04DX003 (ip), vehicle: saline
[13] = dose: 200.0 mg/kg/injection, schedule: Q04DX003 (ip), vehicle: saline

Measured: T/C

O=C(Nc1ccc([N+](=O)[O-])cc1Cl)Oc1ccc(Cl)cc1Cl
inactive: dose: 100.0 mg/kg/injection, schedule: Q01DX001 (ip), vehicle: carboxymethylcellulose (CMC) 97 % of control | dose: 100.0 mg/kg/injection, schedule: Q01DX009 (ip), vehicle: carboxymethylcellulose (CMC) 109 % of control and 91 % of control | dose: 100.0 mg/kg/injection, schedule: Q04DX002 (ip), vehicle: carboxymethylcellulose (CMC) 94 % of control and 90 % of control | dose: 100.0 mg/kg/injection, schedule: Q04DX003 (ip), vehicle: carboxymethylcellulose (CMC) 102 % of control | dose: 200.0 mg/kg/injection, schedule: Q01DX001 (ip), vehicle: carboxymethylcellulose (CMC) 97 % of control | dose: 200.0 mg/kg/injection, schedule: Q01DX009 (ip), vehicle: carboxymethylcellulose (CMC) 102 % of control and 91 % of control | dose: 200.0 mg/kg/injection, schedule: Q04DX002 (ip), vehicle: carboxymethylcellulose (CMC) 93 % of control and 110 % of control | dose: 200.0 mg/kg/injection, schedule: Q04DX003 (ip), vehicle: carboxymethylcellulose (CMC) 94 % of control | dose: 400.0 mg/kg/injection, schedule: Q01DX001 (ip), vehicle: carboxymethylcellulose (CMC) 98 % of control | dose: 400.0 mg/kg/injection, schedule: Q01DX009 (ip), vehicle: carboxymethylcellulose (CMC) 98 % of control | dose: 400.0 mg/kg/injection, schedule: Q04DX002 (ip), vehicle: carboxymethylcellulose (CMC) 93 % of control and 105 % of control | dose: 400.0 mg/kg/injection, schedule: Q04DX003 (ip), vehicle: carboxymethylcellulose (CMC) 98 % of control

CSC(=N)c1cccc(OCCOc2ccccc2)c1
inactive: dose: 50.0 mg/kg/injection, schedule: Q01DX009 (ip), vehicle: Klucel (hydroxypropylcellulose) (HPC) 96 % of control | [1] 102 % of control | [2] 96 % of control

CCOP(=O)(OCC)Oc1cc(C)c(C#N)c(C)c1
inactive: dose: 5.0 mg/kg/injection, schedule: Q01DX001 (ip), vehicle: saline 108 % of control | dose: 10.0 mg/kg/injection, schedule: Q01DX001 (ip), vehicle: saline 108 % of control | dose: 20.0 mg/kg/injection, schedule: Q01DX001 (ip), vehicle: saline 100 % of control | dose: 40.0 mg/kg/injection, schedule: Q01DX001 (ip), vehicle: saline 103 % of control

COC1CC(OCc2ccc(Br)cc2)C(COC(c2ccccc2)(c2ccccc2)c2ccccc2)O1 (configuration not stated)
inactive: dose: 100.0 mg/kg/injection, schedule: Q04DX003 (ip), vehicle: Klucel (hydroxypropylcellulose) (HPC) 92 % of control | dose: 200.0 mg/kg/injection, schedule: Q04DX003 (ip), vehicle: Klucel (hydroxypropylcellulose) (HPC) 94 % of control | dose: 400.0 mg/kg/injection, schedule: Q04DX003 (ip), vehicle: Klucel (hydroxypropylcellulose) (HPC) 100 % of control

N#CC1c2cc(OC(=O)c3ccccc3)ccc2C=CN1C(=O)c1ccccc1 (configuration not stated)
inactive: dose: 100.0 mg/kg/injection, schedule: Q04DX003 (ip), vehicle: gum acacia 89 % of control | dose: 200.0 mg/kg/injection, schedule: Q04DX003 (ip), vehicle: gum acacia 89 % of control

O=C(COc1cc(Cl)c(Cl)cc1Cl)Nc1ccc(Cl)cc1
inactive: [3] 103 % of control | [4] 106 % of control | [5] 103 % of control

O=C1Nc2cccc3c2N(CCC3)C2=C1CCC2
inactive: [3] 105 % of control | [4] 105 % of control | [5] 108 % of control

CCC(=O)OC1(c2ccccc2)CCN(C/C=C/c2cccc3ccccc23)CC1
inactive: dose: 100.0 mg/kg/injection, schedule: Q01DX001 (ip), vehicle: gum acacia 103 % of control | dose: 200.0 mg/kg/injection, schedule: Q01DX001 (ip), vehicle: gum acacia 103 % of control

O=S(=O)(O)Nc1cccc(Cl)c1
inactive: dose: 100.0 mg/kg/injection, schedule: Q04DX002 (ip), vehicle: saline with Tween-80 100 % of control | dose: 200.0 mg/kg/injection, schedule: Q04DX002 (ip), vehicle: saline with Tween-80 111 % of control | dose: 400.0 mg/kg/injection, schedule: Q04DX002 (ip), vehicle: saline with Tween-80 88 % of control

O=C1CCCCC1c1cccc2ccccc12 (configuration not stated)
inactive: dose: 100.0 mg/kg/injection, schedule: Q01DX001 (sc), vehicle: olive oil, sesame oil, peanut oil 97 % of control | dose: 200.0 mg/kg/injection, schedule: Q01DX001 (sc), vehicle: olive oil, sesame oil, peanut oil 104 % of control | dose: 400.0 mg/kg/injection, schedule: Q01DX001 (sc), vehicle: olive oil, sesame oil, peanut oil 106 % of control

CCOP(=O)(Cc1c(Cl)c(Cl)c(CP(=O)(OCC)OCC)c(Cl)c1Cl)OCC
inactive: [6] 107 % of control | [7] 98 % of control | dose: 400.0 mg/kg/injection, schedule: Q01DX001 (ip), vehicle: saline 98 % of control

O=[N+]([O-])c1cc2c(c([N+](=O)[O-])c1)Nc1cc(Cl)ccc1O2
inactive: [1] 95 % of control | [2] 96 % of control | dose: 400.0 mg/kg/injection, schedule: Q01DX009 (ip), vehicle: Klucel (hydroxypropylcellulose) (HPC) 96 % of control

OC(c1ccccc1)C(c1ccccc1)N1CC1 (configuration not stated)
inactive: dose: 75.0 mg/kg/injection, schedule: Q01DX001 (ip), vehicle: carboxymethylcellulose (CMC) 93 % of control | dose: 150.0 mg/kg/injection, schedule: Q01DX001 (ip), vehicle: carboxymethylcellulose (CMC) 92 % of control | dose: 300.0 mg/kg/injection, schedule: Q01DX001 (ip), vehicle: carboxymethylcellulose (CMC) 92 % of control

O=C1CCC([N+](=O)[O-])C(c2ccc3ccccc3c2)N1 (configuration not stated)
inactive: dose: 100.0 mg/kg/injection, schedule: Q01DX001 (ip), vehicle: saline with Tween-80 95 % of control | dose: 200.0 mg/kg/injection, schedule: Q01DX001 (ip), vehicle: saline with Tween-80 95 % of control | dose: 400.0 mg/kg/injection, schedule: Q01DX001 (ip), vehicle: saline with Tween-80 95 % of control

CC(=O)N1C(C)C1(c1ccccc1)[n+]1ccccc1 (configuration not stated)
inactive: dose: 12.0 mg/kg/injection, schedule: Q04DX003 (ip), vehicle: saline 98 % of control | dose: 12.5 mg/kg/injection, schedule: Q01DX009 (ip), vehicle: saline 101 % of control | [8] 92 % of control | dose: 25.0 mg/kg/injection, schedule: Q04DX003 (ip), vehicle: saline 88 % of control | [9] 101 % of control | [10] 104 % of control

CCN(CC)CCNc1ccccc1Cl
inactive: [6] 101 % of control | [7] 101 % of control

CCSCN(C)C
inactive: [9] 102 % of control | [10] 97 % of control | [6] 113 % of control | [11] 101 % of control | [12] 103 % of control | [7] 97 % of control | [13] 105 % of control

NCCc1ccc2c(c1)OCO2
inactive: [8] 109 % of control | [9] 107 % of control | [11] 100 % of control and 107 % of control | [12] 97 % of control | [13] 102 % of control

COC1/C=C/OC2(C)Oc3c(C)c(O)c4c(O)c(c(/C=N/N(C)c5ncnc6c5ncn6C5OC(CO)C(O)C5O)c(O)c4c3C2=O)NC(=O)C(C)=C/C=C/C(C)C(O)C(C)C(O)C(C)C(OC(C)=O)C1C (configuration not stated)
inactive: dose: 200.0 mg/kg/injection, schedule: Q01DX009 (ip), vehicle: saline 87 % of control | dose: 400.0 mg/kg/injection, schedule: Q01DX009 (ip), vehicle: saline 94 % of control
